In brackets after ≈: the same amount, converted by molar mass.
Tests used:
Format in all cases: functional, cell-based
B16 = experiment: Cytotoxicity against mouse B16 cells after 72 hrs by MTT assay; details: B16, 72 h
HCT-8 = experiment: Cytotoxicity against human HCT8 cells after 72 hrs by MTT assay; details: HCT-8, 72 h
MCF7 = experiment: Cytotoxicity against human MCF7 cells after 72 hrs by MTT assay; details: MCF7, 72 h
CCRF-CEM = experiment: Cytotoxicity against human CEM cells after 72 hrs by MTT assay
HL-60 = experiment: Cytotoxicity against human HL60 cells after 72 hrs by MTT assay; details: HL-60, 72 h

COc1ccc2c(c1)OC1c3cc(OC)c(OC)cc3OCC21 (stereo unspecified)
IC50 (B16): 2.9 µg/mL (≈ 9.23 µM)
IC50 (HCT-8): 0.6 µg/mL (≈ 1.91 µM)
IC50 (MCF7): 0.7 µg/mL (≈ 2.23 µM)
IC50 (CCRF-CEM): 0.6 µg/mL (≈ 1.91 µM)
IC50 (HL-60): 0.1 µg/mL (≈ 0.318 µM)

COc1cccc2c1C(=O)c1c(O)c3c(c(O)c1C2=O)C[C@@](O)(C(=O)CO)C[C@@H]3O[C@H]1C[C@H](N)[C@H](O)[C@H](C)O1 [DOXORUBICIN]
IC50 (MCF7): 0.2 µg/mL (≈ 0.368 µM)

COc1ccc2c(c1)O[C@H]1c3ccc(OC)cc3OC[C@@H]21 [HOMOPTEROCARPIN]
IC50 (B16): 5.2 µg/mL (≈ 18.3 µM)
IC50 (HCT-8): 6.4 µg/mL (≈ 22.5 µM)
IC50 (MCF7): 18.5 µg/mL (≈ 65.1 µM)
IC50 (CCRF-CEM): 5.5 µg/mL (≈ 19.3 µM)
IC50 (HL-60): 3.9 µg/mL (≈ 13.7 µM)

O=C1C[C@@H](c2ccc(O)cc2)Oc2cc(O)ccc21 [LIQUIRTIGENIN]
IC50 (B16): 5 µg/mL (≈ 19.5 µM)
IC50 (HCT-8): 19.5 µg/mL (≈ 76.1 µM)
IC50 (MCF7): > 25 µg/mL
IC50 (CCRF-CEM): > 25 µg/mL
IC50 (HL-60): 22.5 µg/mL (≈ 87.8 µM)

COc1ccc2c(c1)OC1c3ccc(O)c(O)c3OCC21 (stereo unspecified) [VESTICARPAN]
IC50 (B16): 2.7 µg/mL (≈ 9.43 µM)
IC50 (HCT-8): 12.4 µg/mL (≈ 43.3 µM)
IC50 (MCF7): 10 µg/mL (≈ 34.9 µM)
IC50 (CCRF-CEM): 7.3 µg/mL (≈ 25.5 µM)
IC50 (HL-60): 6.9 µg/mL (≈ 24.1 µM)
